Measured values taken from US20240398773A1, “COMPOSITIONS COMPRISING OTESECONAZOLE” (Mycovia Pharmaceuticals, Inc., priority 2021, published 2024).
Where two headings read alike, the source gives them in different places. Marks after values point to notes of the source that are not given here.

Columns and labels:
[1] = Phase 2a acute VVC study, safety; assay type: in vivo, human; details: administered for 3 days
Description: Oteseconazole has previously been evaluated in a Phase 2a multi-center, randomized, double-blind, active-controlled, parallel-group, dose-ranging study in patients with moderate-to-severe acute VVC. A total of 55 subjects with moderate-to-severe acute VVC (severity score ≥6 and a positive fungal KOH test) participated in the study across 4 dose groups: 1) oteseconazole 300 mg qd for 3 days: 2) 600 mg qd for 3 days: 3) 600 mg bid for 3 days; or 4) a single dose of fluconazole 150 mg followed by matching placebo. […] No safety signals of clinical concern were observed from the safety assessments.

[2] = Physicochemical and biological properties of drug substance
Description: As a BCS Class IIc drug, it may be anticipated that dissolution may be dependent upon the drug substance particle size. (Tsume et al., 2014). Micronization of the drug substance provided a means to deliver drug substance with a small and consistent particle size. A discriminatory dissolution method was developed to show the effect of drug substance particle size on dissolution to help ensure product quality. […] A high shear wet granulation process was developed to densify the product, and improve its flow to enable manufacturing, while maintaining good dissolution from the formulation.

[3] = Study CL-001 single-dose escalation in healthy subjects, plasma PK; assay type: in vivo, human; details: for Tmax / Vd/F / half-life / Cmax / AUC(0-inf): both sexes, human, plasma
Description: Study Oteseconazole CL-001 (hereafter referenced as “CL-001”) was a single-center, Phase 1, double-blind, randomized, placebo-controlled, dose-escalating study in healthy adult subjects.
Sixty-four subjects (43 males and 21 females) between 18 and 55 years of age were enrolled in 8 dose groups. Within each dose group, 6 subjects received oteseconazole and 2 subjects received placebo. In the first 7 cohorts, escalating single oral doses (5, 10, 20, 40, 80, 160, or 320 mg) were administered in the fasted state using 2.5, 20, or 60 mg capsules of oteseconazole or matching placebo. An eighth cohort received a single 320 mg oral dose of oteseconazole or matching placebo after ingesting a high-fat breakfast. Subjects in Cohorts 1 through 6 were followed for 14 days for safety and PK assessments. Visits on Days 28 and 42 were added for Cohorts 7 and 8. Dose escalation proceeded only after safety and PK of the previous dose were determined.
The PK analysis was based on concentration-time data from 36 subjects who received active oteseconazole at doses between 20 mg and 320 mg. The majority of the oteseconazole plasma concentrations in Cohort 1 (5 mg) and Cohort 2 (10 mg) were below the limit of quantification (<20 ng/mL); therefore, no PK analysis could be conducted on these subjects.

[4] = Study CL-005 in subjects with onychomycosis, plasma PK; assay type: in vivo; details: human; for AUC(0-t): read-out: AUC0-8; for concentration at 12 weeks: after 12 weeks; for concentration at 12 weeks / concentration at 24 weeks: read-out: plasma exposure; for concentration at 24 weeks: after 24 weeks
Description: Within each treatment group, oteseconazole plasma exposures increased throughout the dosing regimen from Day 1 to Week 12 or 24. […] Mean Cmax and AUC0-8 values after the Day 14 dose (completion of the loading dose phase of the study) were similar for the 300 mg 12-week and 300 mg 24-week treatment groups, and for the 600 mg 12-week and 600 mg 24-week treatment groups, as expected.

[5] = Study CL-012 plasma concentrations; assay type: in vivo; details: human
Description: Oteseconazole mean (SD) plasma concentration increased with dosing for 12 weeks, reaching a maximum concentration of 3605.8 (1518.08) μg/L at Week 12. At the end of dosing, there was a slow decrease in oteseconazole plasma concentration, reaching 1122.0 (656.14) μg/L by Week 48 (FIG. 5). Following the loading dose regimen of 150 mg oteseconazole QD for 7 days, the mean (SD) oteseconazole plasma concentration at Day 14 was 1785.5 (747.75) μg/L.

acute VVC episodes [6] = assay: Study CL-012 culture-verified acute VVC episodes; assay type: in vivo, human; details: 150 mg QD for 7 days, then 150 mg QW for 11 weeks
Description: The average percentage of subjects with one or more culture-verified acute VVC episodes in the 150 mg oteseconazole group was 3.9% versus 39.4% in the placebo group.

acute VVC episodes [7] = assay: Study CL-017 efficacy versus fluconazole, acute VVC episodes; assay type: in vivo, human
[8] = Cohort 4, single oral 40 mg, fasted, mean
[9] = Cohort 5, single oral 80 mg, fasted, mean
[10] = Cohort 6, single oral 160 mg, fasted, mean
[11] = Cohort 7, single oral 320 mg, Fasted, mean
[12] = Cohort 8, single oral 320 mg, Fed (high-fat breakfast), mean
[13] = po, 40 mg, Cohort 4, single oral 40 mg, fasted, mean
[14] = po, 80 mg, Cohort 5, single oral 80 mg, fasted, mean
[15] = po, 160 mg, Cohort 6, single oral 160 mg, fasted, mean
[16] = po, 320 mg, Cohort 7, single oral 320 mg, Fasted, mean
[17] = po, 320 mg, Cohort 8, single oral 320 mg, Fed (high-fat breakfast), mean
[18] = 300 mg, Day 14, Low Dose (300 mg), 12 weeks
[19] = 300 mg, Day 14, Low Dose (300 mg), 24 weeks
[20] = 600 mg, Day 14, High Dose (600 mg), 12 weeks
[21] = 600 mg, Day 14, High Dose (600 mg), 24 weeks

- BCS class [2]: BCS Class IIc
- hygroscopicity [2]: slightly hygroscopic
- stability to light [2]: stable in the presence of light
- solubility ([2]; BCS classification): low solubility
- chemical stability ([2]; alone and formulated into a drug product): excellent chemical stability
- bulk density ([2]; micronized drug substance): approximately 0.2 g/mL
- plasma concentrations with standard high-fat meal versus fasted state ([3]; 320 mg, Cohort 8 versus Cohort 7): higher plasma concentrations
- plasma concentrations (majority below the limit of quantification) ([3]; Cohort 1 (5 mg) and Cohort 2 (10 mg)): < 20 ng/mL
- Tlag ([3]; Cohort 3, single oral 20 mg, fasted, mean): 1.84 h
- CL/F ([3]; Cohort 3, single oral 20 mg, fasted, mean, N = 5): 1.39 ^a L/h
- CL/F [3, 8]: 1.30 L/h
- Tlag [3, 8]: 1.58 h
- CL/F [3, 9]: 1.08 L/h
- Tlag [3, 9]: 1.17 h
- CL/F [3, 10]: 1.67 L/h
- Tlag [3, 10]: 0.75 h
- CL/F [3, 11]: 1.35 L/h
- Tlag [3, 11]: 0.67 h
- CL/F [3, 12]: 0.406 L/h
- Tlag [3, 12]: 1.25 h
- Tmax ([3]; oral, 4 hours at 80 mg to 10 hours at 40 mg, read-out: Median Tmax, range over doses): 4 to 10 h
- Vd/F ([3]; oral, all cohorts, read-out: Vz/F, range of cohort averages): 696 to 1650 L
- half-life ([3]; po, 20 mg, Cohort 3, single oral 20 mg, fasted, N = 5): 393 h
- Cmax ([3]; po, 20 mg, Cohort 3, single oral 20 mg, fasted, mean): 44.7 ng/mL
- AUC(0-inf) ([3]; po, 20 mg, Cohort 3, single oral 20 mg, fasted, mean, N = 5): 16100 ng·h/mL
- Vd/F ([3]; po, 20 mg, Cohort 3, single oral 20 mg, fasted, mean, N = 5, read-out: Vz/F): 696 L
- Tmax ([3]; po, 20 mg, Cohort 3, single oral 20 mg, fasted, median, read-out: Tmax): 5.03 h
- half-life ([3]; po, 40 mg, Cohort 4, single oral 40 mg, fasted): 548 h
- AUC(0-inf) [3, 13]: 35000 ng·h/mL
- Cmax [3, 13]: 79.7 ng/mL
- Vd/F ([3]; po, 40 mg, Cohort 4, single oral 40 mg, fasted, mean, read-out: Vz/F): 939 L
- Tmax ([3]; po, 40 mg, Cohort 4, single oral 40 mg, fasted, median, read-out: Tmax): 10 h
- half-life ([3]; po, 80 mg, Cohort 5, single oral 80 mg, fasted): 536 h
- AUC(0-inf) [3, 14]: 84600 ng·h/mL
- Cmax [3, 14]: 165 ng/mL
- Vd/F ([3]; po, 80 mg, Cohort 5, single oral 80 mg, fasted, mean, read-out: Vz/F): 761 L
- Tmax ([3]; po, 80 mg, Cohort 5, single oral 80 mg, fasted, median, read-out: Tmax): 4.01 h
- half-life ([3]; po, 160 mg, Cohort 6, single oral 160 mg, fasted): 618 h
- AUC(0-inf) [3, 15]: 109000 ng·h/mL
- Cmax [3, 15]: 180 ng/mL
- Vd/F ([3]; po, 160 mg, Cohort 6, single oral 160 mg, fasted, mean, read-out: Vz/F): 1400 L
- Tmax ([3]; po, 160 mg, Cohort 6, single oral 160 mg, fasted, median, read-out: Tmax): 6 h
- half-life ([3]; po, 320 mg, Cohort 7, single oral 320 mg, Fasted): 873 h
- AUC(0-inf) [3, 16]: 242000 ng·h/mL
- Cmax [3, 16]: 338 ng/mL
- Vd/F ([3]; po, 320 mg, Cohort 7, single oral 320 mg, Fasted, mean, read-out: Vz/F): 1650 L
- Tmax ([3]; po, 320 mg, Cohort 7, single oral 320 mg, Fasted, median, read-out: Tmax): 5 h
- half-life ([3]; po, 320 mg, Cohort 8, single oral 320 mg, Fed (high-fat breakfast)): 1470 h
- AUC(0-inf) [3, 17]: 953000 ng·h/mL
- Cmax [3, 17]: 988 ng/mL
- Vd/F ([3]; po, 320 mg, Cohort 8, single oral 320 mg, Fed (high-fat breakfast), mean, read-out: Vz/F): 741 L
- Tmax ([3]; po, 320 mg, Cohort 8, single oral 320 mg, Fed (high-fat breakfast), median, read-out: Tmax): 6 h
- Cmax [4, 18]: 5120 ng/mL
- AUC(0-t) [4, 18]: 36700 ng·h/mL
- Cmax [4, 19]: 5510 ng/mL
- AUC(0-t) [4, 19]: 40100 ng·h/mL
- Cmax [4, 20]: 8290 ng/mL
- AUC(0-t) [4, 20]: 59700 ng·h/mL
- Cmax [4, 21]: 8390 ng/mL
- AUC(0-t) [4, 21]: 61600 ng·h/mL
- Tmax ([4]; Day 14, High Dose (600 mg), 12 weeks): 5 h
- Tmax ([4]; Day 14, Low Dose (300 mg), 12 weeks): 5 h
- concentration at 12 weeks ([4]; 300 mg 12-week treatment group): 6750 ng/mL
- concentration at 12 weeks ([4]; 600 mg 12-week treatment group): 12300 ng/mL
- concentration at 24 weeks ([4]; 300 mg 24-week treatment group): 9230 ng/mL
- concentration at 24 weeks ([4]; 600 mg 24-week treatment group): 15600 ng/mL
- concentration at 12 week ([5]; 150 mg, Week 12, maximum concentration, read-out: mean (SD) plasma concentration): 3610 ng/mL
- concentration at 48 week ([5]; 150 mg, Week 48, read-out: mean (SD) plasma concentration): 1120 ng/mL
- concentration at 14 day ([5]; Day 14, after loading 150 mg QD for 7 days, read-out: mean (SD) plasma concentration): 1790 ng/mL
SMILES: O[C@@](Cn1cnnn1)(c1ccc(F)cc1F)C(F)(F)c1ccc(-c2ccc(OCC(F)(F)F)cc2)cn1 [Oteseconazole, oteseconazole]
- serious adverse events [1]: no serious adverse events
- safety and tolerability ([1]; 300 mg qd to 600 mg bid): safe and well tolerated
- ionization ([2]; pH range of the gastrointestinal tract): unionized throughout the pH range of the gastrointestinal tract
- average percentage of subjects with one or more culture-verified acute VVC episodes (acute VVC episodes [6]): 3.9%
- efficacy of enhanced loading dose compared with fluconazole (acute VVC episodes [7]; 600 mg Day 1 and 450 mg Day 2 versus fluconazole three 150 mg doses 72 hours apart): noninferior to fluconazole
- average percentage of subjects with 1 or more culture-verified acute VVC episodes (acute VVC episodes [7]; including subjects who had a recurrence during the Induction Phase): 5.1%
